Measurements taken from paper PMC9088798, “An Approach to Derive Functional Peptide Inhibitors of Transcription Factor Activity” (JACS Au, 2022).

What was measured:
[1] = CD spectroscopy of single components (helicity); type: physicochemical; settings: 20 °C, 10 μM, 150 mM potassium phosphate, 150 mM KF, 5 mM TCEP, pH 7.4
Protocol: Figure 5 TBS winner peptide HingeW binds cJun preferentially over A-FosW. CD spectra (20 °C) show the binding of cJun to either (A) HingeW or (B) A-FosW. […] However, the effect is larger for HingeW, indicating a greater increase in peptide helicity. Similarly, the thermal denaturation of cJun bound to either (C) HingeW or (D) A-FosW is right-shifted from the average of the component peptide denaturation profiles. […] CD dimer exchange spectra show (E) an increase in helicity when HingeW is mixed with the A-FosW/cJun heterodimer as the HingeW exchanges with the A-FosW due to the binding preference of cJun for HingeW and (F) no shift from the average is observed when A-FosW is mixed with the HingeW/cJun heterodimer, indicating no change in dimer populations. Arrows are shown to highlight the shift from the average at 190 and 222 nm. In all experiments, the total sample peptide concentration was fixed to 10 μM, using equimolar concentrations of each component peptide to remove concentration-dependent effects. […]
(§1) µM) alongside ampicillin, kanamycin and chloramphenicol to maintain the required plasmids, and IPTG (1 mM) to induce protein expression. The library transformants were […]
increased to the optimum 4 µM in subsequent passages. […] This allows the occurrence of library members to be monitored as winner sequences are selected for. […]

[2] = system: cJun bZIP / TRE sites in TRE-mDHFR gene; assay: Transcription block survival (TBS) colony counting in E. coli; type: cell-based, human cJun, expressed in E. coli
Protocol: Figure 3 Transcription block survival (TBS) assay to derive functionally active cJun inhibitors. (A) Schematic illustrating the design and operation of TBS. (B) Controlled numbers of E. coli expressing the indicated proteins were plated on selective media and growth rates were calculated by counting colony-forming units. […] (2) A small effect on colony numbers is observed when cJun bZIP is additionally expressed. (3) TRE-mDHFR can replace the inhibited ecDHFR with colony count lower than for WT as expected. […] Although (6) cFos LZ and (7) FosW are known cJun-binders, they are unable to effectively dissociate the cJun bZIP from TRE DNA. However, (8) A-FosW and the TBS-derived hit (9) HingeW remove TRE-mDHFR transcriptional blocks to restore cell survival. Bar charts represent averages of three experimental repeats. Errors are shown as one standard deviation. Selected P values from a t-test are indicated (*P ≤ 0.05; **P ≤ 0.01; ****P ≤ 0.0001) with values for all possible comparisons within the bar chart reported in Figure S7. Serial dilutions were used to quantify colony numbers where required. Also shown are representative plate images and schematics to illustrate the effect upon TRE-mDHFR transcription. […]
Library Construction and TBS Assay: Library inserts were produced using PCR fill-in reactions from synthesised primers (Sigma) with degenerate codons at the desired positions to produce the correct residue options. The library was subcloned using SacI and AscI sites into the pET24a plasmid containing A-FosW. The primers used were cJun- […]
-3’ and cJun-Hinge-Lib_R: 5’-
-3’. The library DNA was transformed into NEB 10-beta electrocompetent E. coli cells. The following equation was utilised to determine library […]
coverage by the number of single colonies: where E is the percentage […] of the library missing, m is the number of colonies collected and n is the library size. This […]
covered. Library DNA quality was assessed by sequencing both the DNA pool and a number of single colonies to show degenerate codons in the correct positions in the pool and to show a diversity of library members from single colonies. The pool of library DNA was transformed into BL21 Gold cells already containing pES300d-TRE-mDHFR and […]
as §1
however a lower stringency is used initially before selection is increased in later steps.
Colonies from this first round of selection were pooled and serially grown in liquid culture at starting OD600 of 0.05 and grown at 37°C with shaking at 200 rpm until the OD600 […]
increased to the optimum 4 µM in subsequent passages. Bacteria containing the most effective functional antagonists were expected to produce higher levels of TRE-mDHFR which provides a growth advantage, and these will dominate the culture. At each passage step, a sample of the culture was plated on LB agar (supplemented with antibiotics to maintain plasmids) to select and sequence individual colonies, and a DNA pool was also sequenced. This allows the occurrence of library members to be monitored as winner sequences are selected for. Assay Validation experiments utilised a modified assay methodology whereby overnight cultures from glycerol stocks of the Control Strains (Figure S6) were diluted to OD600=0.5 and 50 µL was plated on a selective M9 minimal […]

Substance	Fraction helicity of single component [1] [%]	colony numbers restored relative to TRE-mDHFR only ([2]; TRE-mDHFR + cJun bZIP + peptide, M9 + 4 μM TMP + 1 mM IPTG, average of three experimental repeats) [%]	reduction in colony counts on expression of cJun bZIP with TRE-mDHFR ([2]; M9 minimal media + 4 μM TMP + 1 mM IPTG, TRE-mDHFR + cJun bZIP, P ≤ 0.0001, average of three experimental repeats) [fold]	reduction in colony counts on expression of cJun bZIP without TRE sites (WT-mDHFR) ([2]; M9 minimal media + 4 μM TMP + 1 mM IPTG, WT-mDHFR + cJun bZIP vs WT-mDHFR, P ≤ 0.05, three experimental repeats) [fold]
LEQRAEELARENEELEKEAEELEQELDELQAEIEQLEERNYALRKEIEDLQKQLEKL [A-FosW, N-terminal AS and C-terminal GAP caps, 6xHis-tagged]	40.1	60		
cJun bZIP: human cJun bZIP domain, Arg252 to Leu308 (target protein)	14.0		21	1.3
